The test deals with T1, Dipeptidyl peptidase-IV (DPP-IV) (Homo sapiens, UniProt P27487).
T1 construct: gene DPP4
Nature of the test: Fluorogenic enzyme inhibition assay (Cayman DPP-IV inhibitor screening kit […], Gly-Pro-AMC substrate). It counts as biochemical.

These results are taken from paper PMC8642699, “Dipeptidyl peptidase-IV inhibitory action of Calebin A: An in silico and in vitro analysis” (Journal of Ayurveda and Integrative Medicine, 2021).

T1 sequence (P27487 39-766): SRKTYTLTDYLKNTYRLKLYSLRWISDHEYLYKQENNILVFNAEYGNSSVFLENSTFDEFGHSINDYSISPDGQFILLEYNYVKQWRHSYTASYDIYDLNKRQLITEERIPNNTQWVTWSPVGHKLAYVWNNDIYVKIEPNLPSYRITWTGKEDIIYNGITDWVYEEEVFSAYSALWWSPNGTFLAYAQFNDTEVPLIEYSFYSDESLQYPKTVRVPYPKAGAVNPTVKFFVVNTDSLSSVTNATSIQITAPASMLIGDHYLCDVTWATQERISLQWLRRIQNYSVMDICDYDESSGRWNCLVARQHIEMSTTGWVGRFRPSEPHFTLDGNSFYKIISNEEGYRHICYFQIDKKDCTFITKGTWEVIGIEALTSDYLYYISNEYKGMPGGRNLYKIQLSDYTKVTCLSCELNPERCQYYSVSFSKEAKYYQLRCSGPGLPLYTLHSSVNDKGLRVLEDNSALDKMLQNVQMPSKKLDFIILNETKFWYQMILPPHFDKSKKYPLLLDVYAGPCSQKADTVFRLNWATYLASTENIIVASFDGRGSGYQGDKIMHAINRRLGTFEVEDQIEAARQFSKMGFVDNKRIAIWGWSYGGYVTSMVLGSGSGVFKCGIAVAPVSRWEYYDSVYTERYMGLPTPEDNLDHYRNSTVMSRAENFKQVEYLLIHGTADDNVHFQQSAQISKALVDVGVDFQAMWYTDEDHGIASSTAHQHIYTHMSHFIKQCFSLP

The term IC50 denotes the concentration that inhibits the measured activity by half. Low values mean higher potency, high ones lower potency. `COc1cc(/C=C/C(=O)COC(=O)/C=C/c2ccc(O)c(OC)c2)ccc1O` [CA, Calebin A] displayed an IC50 of 6.09 ± 0.41 µM.
